Read-outs that look alike come from different tables or passages of the source. Numbered stars: 1 amine (or outer) side, 2 acyl side, 3 side chain; on linkers, the order of the positions; unused ones are H or OH. Bridge positions count the residues as written; N and C are the ends. Square brackets hold non-standard residues; d marks the D form. Peptide text beside a SMILES is read from it. * marks the point of attachment. ξ: configuration not given here. Phe(3-OCH2COOH) = N[C@@H](Cc1cccc(OCC(=O)O)c1)C(=O)O; Phe(4-CONH2) = NC(=O)c1ccc(C[C@H](N)C(=O)O)cc1; Phe(4-COOH) = N[C@@H](Cc1ccc(C(=O)O)cc1)C(=O)O; Bip = N[C@@H](Cc1ccc(-c2ccccc2)cc1)C(=O)O; Phe(3-CN) = N#Cc1cccc(C[C@H](N)C(=O)O)c1; Phe(4-CN) = N#Cc1ccc(C[C@H](N)C(=O)O)cc1; Phe(3-F) = N[C@@H](Cc1cccc(F)c1)C(=O)O; Phe(3-Me) = Cc1cccc(C[C@H](N)C(=O)O)c1; X34 = O=C([C@H](Cc1ccoc1)N[*:1])[*:2]; Val(3-OH) = CC(C)(O)[C@H](N)C(=O)O; 3Thi = N[C@@H](Cc1ccsc1)C(=O)O; Cha = N[C@@H](CC1CCCCC1)C(=O)O; Cit = NC(=O)NCCC[C@H](N)C(=O)O; Ile(3ξ) = CCC(C)[C@H](N)C(=O)O; Thr(3ξ) = CC(O)[C@H](N)C(=O)O; Carboxymethyl = O=C(O)C*; NMeA = CN[C@@H](C)C(=O)O; Orn = NCCC[C@H](N)C(=O)O; Dab = NCC[C@H](N)C(=O)O; Dap = NC[C@H](N)C(=O)O; NH(CH2)3NH2 = NCCCN*
Biological target: T1, PE-labeled human PD-L1-Ig binding to Jurkat cell line over-expressing human PD-1 (Jurkat-PD-1) (Homo sapiens, UniProt Q15116)
T1 construct: expressed in transfected cells; host or cells: Jurkat
Test: Jurkat-PD-1 Cell Binding High-Content Screening Assay (CBA): Method 1

[1] = Jurkat-hPD-1 cells, PE-labeled PD-L1-Ig 20 nM final, read-out: Jurkat HPDL1 PD1 IC50 (uM) (Method 1)

T1 sequence (Q15116 25-288): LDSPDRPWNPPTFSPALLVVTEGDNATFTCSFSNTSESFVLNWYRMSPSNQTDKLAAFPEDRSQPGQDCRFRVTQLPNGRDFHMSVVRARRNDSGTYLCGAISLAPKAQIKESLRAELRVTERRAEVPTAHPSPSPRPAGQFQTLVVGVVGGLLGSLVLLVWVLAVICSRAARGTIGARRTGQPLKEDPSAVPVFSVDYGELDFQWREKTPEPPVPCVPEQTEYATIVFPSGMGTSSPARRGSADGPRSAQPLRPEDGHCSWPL

SMILES | IC50 [1] [µM] | IC50 (Jurkat-PD-1 cells, PE-labeled PD-L1-Ig, μM, read-out: CBA Method 1 μM) [µM]
Cc1cccc(C[C@@H]2NC(=O)[C@H](CC(=O)O)NC(=O)[C@H](Cc3ccc(OCC(=O)O)cc3)NC(=O)[C@H](CC(N)=O)NC(=O)CSC[C@@H](C(N)=O)NC(=O)[C@H]([C@@H](C)O)NC(=O)[C@H](C(C)C)NC(=O)[C@H](CC3CCCCC3)NC(=O)[C@H](CCN)NC(=O)[C@@H](CC(C)C)NC(=O)[C@H](C)N(C)C(=O)[C@H](Cc3ccc(OCC(=O)O)cc3)NC(=O)[C@H](Cc3ccc(-c4ccccc4)cc3)NC(=O)[C@H](Cc3ccc(OCC(=O)O)cc3)NC2=O)c1 [Compound 1666] ({CH2CO}-NY(Carboxymethyl)D[Phe(3-Me)]Y(Carboxymethyl)[Bip]Y(Carboxymethyl)[NMeA][dL][Dab][Cha]VTC-NH2; thioether N-14) | 0.09 | –
CC(C)C[C@@H]1NC(=O)[C@H](Cc2c[nH]c3ccccc23)NC(=O)[C@H](CC(=O)O)NC(=O)[C@H](Cc2ccc(O)cc2)NC(=O)[C@H](Cc2ccccc2)NC(=O)CSC[C@@H](C(=O)N[C@@H](C)C(N)=O)NC(=O)[C@H](CO)NC(=O)[C@H](C(C)C)NC(=O)[C@H](CC(C)C)NC(=O)[C@H](CC(N)=O)NC(=O)[C@@H](CC(C)C)NC(=O)[C@H](C)N(C)C(=O)[C@H](CCCNC(=N)N)NC(=O)[C@H](Cc2ccc(-c3ccccc3)cc2)NC1=O [Compound 1775] ({CH2CO}-FYDWL[Bip]R[NMeA][dL]NLVSCA-NH2; thioether N-14) | 0.05 | –
Cc1cccc(C[C@@H]2NC(=O)[C@H](CC(=O)O)NC(=O)[C@H](Cc3ccc(OCC(=O)O)cc3)NC(=O)[C@H](C(C)C)NC(=O)CSC[C@@H](C(=O)N[C@@H](CN)C(N)=O)NC(=O)[C@H](C(C)O)NC(=O)[C@H](C(C)(C)O)NC(=O)[C@H](CC3CCCCC3)NC(=O)[C@H](CCN)NC(=O)[C@@H](CC(C)C)NC(=O)[C@H](C)N(C)C(=O)[C@H](CCCNC(N)=O)NC(=O)[C@H](Cc3ccc(-c4ccccc4)cc3)NC(=O)[C@H](Cc3ccc(OCC(=O)O)cc3)NC2=O)c1 (stereo partly drawn) [Compound 2167] ({CH2CO}-VY(Carboxymethyl)D[Phe(3-Me)]Y(Carboxymethyl)[Bip][Cit][NMeA][dL][Dab][Cha][Val(3-OH)][Thr(3ξ)]C[Dap]-NH2; thioether N-14) | 0.05 | –
CC(C)C[C@@H]1NC(=O)[C@H](CC(N)=O)NC(=O)[C@@H](CC(C)C)NC(=O)[C@H](C)N(C)C(=O)[C@H](CCCNC(=N)N)NC(=O)[C@H](Cc2ccc(-c3ccccc3)cc2)NC(=O)[C@H](C(C)C)NC(=O)[C@H](Cc2c[nH]c3ccccc23)NC(=O)[C@H](CC(=O)O)NC(=O)[C@H](Cc2ccc(O)cc2)NC(=O)[C@H](CC(N)=O)NC(=O)CSC[C@@H](C(=O)N[C@@H](C)C(N)=O)NC(=O)[C@H]([C@@H](C)O)NC(=O)[C@H](C(C)C)NC1=O [Compound 1245] ({CH2CO}-NYDWV[Bip]R[NMeA][dL]NLVTCA-NH2; thioether N-14) | 0.1 | –
CC(C)C[C@@H]1NC(=O)[C@H](Cc2c[nH]c3ccccc23)NC(=O)[C@H](CC(=O)O)NC(=O)[C@H](Cc2ccc(O)cc2)NC(=O)[C@H](Cc2ccccc2)NC(=O)CSC[C@@H](C(=O)N[C@@H](C)C(N)=O)NC(=O)[C@H](CO)NC(=O)[C@H](CCCN)NC(=O)[C@H](CC(C)C)NC(=O)[C@H](CC(N)=O)NC(=O)[C@@H](C)NC(=O)[C@H](C)N(C)C(=O)[C@H](C(C)C)NC(=O)[C@H](Cc2ccc(-c3ccccc3)cc2)NC1=O [Compound 1530] ({CH2CO}-FYDWL[Bip]V[NMeA][dA]NL[Orn]SCA-NH2; thioether N-14) | 0.03 | –
CCNC(=O)[C@H](CCN)NC(=O)[C@@H]1CSCC(=O)N[C@@H]([C@@H](C)O)C(=O)N[C@@H](Cc2ccc(OCC(=O)O)cc2)C(=O)N[C@@H](CC(=O)O)C(=O)N[C@@H](Cc2cccc(C)c2)C(=O)N[C@@H](Cc2cccc(F)c2)C(=O)N[C@@H](Cc2ccc(-c3ccccc3)cc2)C(=O)N[C@@H](Cc2ccc(OCC(=O)O)cc2)C(=O)N(C)[C@@H](C)C(=O)N[C@H](CC(C)C)C(=O)N[C@@H](CCN)C(=O)N[C@@H](CC2CCCCC2)C(=O)N[C@@H](C(C)(C)O)C(=O)N[C@@H](CO)C(=O)N1 [Compound 1844] ({CH2CO}-TY(Carboxymethyl)D[Phe(3-Me)][Phe(3-F)][Bip]Y(Carboxymethyl)[NMeA][dL][Dab][Cha][Val(3-OH)]SC[Dab]-NHEt; thioether N-14) | 0.02 | –
CC[C@H](C)[C@@H]1NC(=O)[C@H](Cc2ccc(-c3ccccc3)cc2)NC(=O)[C@H](C(C)C)NC(=O)[C@H](Cc2c[nH]c3ccccc23)NC(=O)[C@H](CC(=O)O)NC(=O)[C@H](Cc2cccc(C#N)c2)NC(=O)[C@H](CC(N)=O)NC(=O)CSC[C@@H](C(=O)N[C@@H](C)C(N)=O)NC(=O)[C@H]([C@@H](C)O)NC(=O)[C@H](C(C)C)NC(=O)[C@H](CC(C)C)NC(=O)[C@H](CCN)NC(=O)[C@@H](CC(C)C)NC(=O)[C@H](C)N(C)C1=O [Compound 1397] ({CH2CO}-N[Phe(3-CN)]DWV[Bip]I[NMeA][dL][Dab]LVTCA-NH2; thioether N-14) | 0.02 | –
CC[C@H](C)[C@@H]1NC(=O)[C@H](Cc2ccc(-c3ccccc3)cc2)NC(=O)[C@H](C(C)C)NC(=O)[C@H](Cc2c[nH]c3ccccc23)NC(=O)[C@H](CC(=O)O)NC(=O)[C@H](Cc2ccc(O)cc2)NC(=O)[C@H](Cc2ccccc2)NC(=O)CSC[C@@H](C(=O)N[C@@H](C)C(N)=O)NC(=O)[C@H]([C@@H](C)O)NC(=O)[C@H](C(C)C)NC(=O)[C@H](CC(C)C)NC(=O)[C@H](CCN)NC(=O)[C@@H](CC(C)C)NC(=O)[C@H](C)N(C)C1=O [Compound 1393] ({CH2CO}-FYDWV[Bip]I[NMeA][dL][Dab]LVTCA-NH2; thioether N-14) | 0.03 | –
Cc1cccc(C[C@@H]2NC(=O)[C@H](CC(=O)O)NC(=O)[C@H](Cc3ccc(OCC(=O)O)cc3)NC(=O)[C@H](C(C)O)NC(=O)CSC[C@@H](C(=O)N[C@@H](CCN)C(N)=O)NC(=O)[C@H](Cc3cnc[nH]3)NC(=O)[C@H](C(C)(C)O)NC(=O)[C@H](CC3CCCCC3)NC(=O)[C@H](CCN)NC(=O)[C@@H](CC(C)C)NC(=O)[C@H](C)N(C)C(=O)[C@H](Cc3ccc(C(N)=O)cc3)NC(=O)[C@H](Cc3ccc(-c4ccccc4)cc3)NC(=O)[C@H](Cc3ccc(OCC(=O)O)cc3)NC2=O)c1 (stereo partly drawn) [Compound 2158] ({CH2CO}-[Thr(3ξ)]Y(Carboxymethyl)D[Phe(3-Me)]Y(Carboxymethyl)[Bip][Phe(4-CONH2)][NMeA][dL][Dab][Cha][Val(3-OH)]HC[Dab]-NH2; thioether N-14) | 0.02 | –
CC(C)C[C@@H]1NC(=O)[C@H](CCN)NC(=O)[C@@H](CC(C)C)NC(=O)[C@H](C)N(C)C(=O)[C@H](CCCN)NC(=O)[C@H](Cc2ccc(-c3ccccc3)cc2)NC(=O)[C@H](C(C)C)NC(=O)[C@H](Cc2c[nH]c3ccccc23)NC(=O)[C@H](CC(=O)O)NC(=O)[C@H](Cc2ccc(O)cc2)NC(=O)[C@H](Cc2cnc[nH]2)NC(=O)CSC[C@@H](C(=O)N[C@@H](C)C(N)=O)NC(=O)[C@H]([C@@H](C)O)NC(=O)[C@H](C(C)C)NC1=O [Compound 1362] ({CH2CO}-HYDWV[Bip][Orn][NMeA][dL][Dab]LVTCA-NH2; thioether N-14) | 0.03 | –
CC(C)C[C@@H]1NC(=O)[C@H](CCN)NC(=O)[C@@H](CC(C)C)NC(=O)[C@H](C)N(C)C(=O)[C@H](C(C)C)NC(=O)[C@H](Cc2ccc(-c3ccccc3)cc2)NC(=O)[C@H](C(C)C)NC(=O)[C@H](Cc2c[nH]c3ccccc23)NC(=O)[C@H](CC(=O)O)NC(=O)[C@H](Cc2ccc(C#N)cc2)NC(=O)[C@H](CN)NC(=O)CSC[C@@H](C(=O)N[C@@H](C)C(N)=O)NC(=O)[C@H]([C@@H](C)O)NC(=O)[C@H](C(C)C)NC1=O [Compound 1435] ({CH2CO}-[Dap][Phe(4-CN)]DWV[Bip]V[NMeA][dL][Dab]LVTCA-NH2; thioether N-14) | 0.05 | –
CC(C)C[C@@H]1NC(=O)[C@H](CCN)NC(=O)[C@@H](CC(C)C)NC(=O)[C@H](C)N(C)C(=O)[C@H](CCCNC(=N)N)NC(=O)[C@H](Cc2ccc(-c3ccccc3)cc2)NC(=O)[C@H](C(C)C)NC(=O)[C@H](Cc2c[nH]c3ccccc23)NC(=O)[C@H](CC(=O)O)NC(=O)[C@H](Cc2cccc(OCC(=O)O)c2)NC(=O)[C@H](CC(N)=O)NC(=O)CSC[C@@H](C(=O)N[C@@H](C)C(N)=O)NC(=O)[C@H]([C@@H](C)O)NC(=O)[C@H](C(C)C)NC1=O [Compound 1372] ({CH2CO}-N[Phe(3-OCH2COOH)]DWV[Bip]R[NMeA][dL][Dab]LVTCA-NH2; thioether N-14) | 0.14 | –
CCC(C)[C@@H]1NC(=O)[C@H](Cc2ccc(-c3ccccc3)cc2)NC(=O)[C@H](C(C)C)NC(=O)[C@H](Cc2c[nH]c3ccccc23)NC(=O)[C@H](CC(=O)O)NC(=O)[C@H](Cc2ccc(O)cc2)NC(=O)[C@H](Cc2ccoc2)NC(=O)CSC[C@@H](C(=O)N2CCC[C@H]2C(N)=O)NC(=O)[C@H](C(C)O)NC(=O)[C@H](C(C)(C)O)NC(=O)[C@H](CC2CCCCC2)NC(=O)[C@H](CC(N)=O)NC(=O)[C@@H](CC(C)C)NC(=O)[C@H](C)N(C)C1=O (stereo partly drawn) [Example 5009] ({CH2CO}-[X34]YDWV[Bip][Ile(3ξ)][NMeA][dL]N[Cha][Val(3-OH)][Thr(3ξ)]CP-NH2; thioether N-14) | – | 0.45
CC(C)C[C@@H]1NC(=O)[C@H](Cc2c[nH]c3ccccc23)NC(=O)[C@H](CC(=O)O)NC(=O)[C@H](Cc2ccc(C(=O)O)cc2)NC(=O)[C@H](Cc2ccc(OCC(=O)O)cc2)NC(=O)CSC[C@@H](C(N)=O)NC(=O)[C@H](CO)NC(=O)[C@H](C(C)C)NC(=O)[C@H](CC2CCCCC2)NC(=O)[C@H](Cc2cnc[nH]2)NC(=O)[C@@H](CC(C)C)NC(=O)[C@H](C)N(C)C(=O)[C@H](C(C)C)NC(=O)[C@H](Cc2ccc(-c3ccccc3)cc2)NC1=O [Compound 2252] ({CH2CO}-Y(Carboxymethyl)[Phe(4-COOH)]DWL[Bip]V[NMeA][dL]H[Cha]VSC-NH2; thioether N-14) | 0.08 | –
CCC(C)[C@@H]1NC(=O)[C@H](Cc2ccc(-c3ccccc3)cc2)NC(=O)[C@H](C(C)C)NC(=O)[C@H](Cc2c[nH]c3ccccc23)NC(=O)[C@H](CC(=O)O)NC(=O)[C@H](Cc2ccc(O)cc2)NC(=O)[C@H](Cc2ccsc2)NC(=O)CSC[C@@H](C(=O)NCCCN)NC(=O)[C@H](C(C)O)NC(=O)[C@H](C(C)(C)O)NC(=O)[C@H](CC2CCCCC2)NC(=O)[C@H](CC(N)=O)NC(=O)[C@@H](CC(C)C)NC(=O)[C@H](C)N(C)C1=O (stereo partly drawn) [Compound 2247] ({CH2CO}-[3Thi]YDWV[Bip][Ile(3ξ)][NMeA][dL]N[Cha][Val(3-OH)][Thr(3ξ)]C-{NH(CH2)3NH2}; thioether N-14) | 0.06 | –

Reference: patent US20240409585A1, “MACROCYCLIC IMMUNOMODULATORS” (priority 2021, published 2024)
